In assay [1] the target is human V1a receptor (Homo sapiens, UniProt P37288). The assay is described as follows: Cellular in vitro assay for determining vasopressin receptor activity, V1a receptor cell line (photoprotein luminescence). The following applies: for IC50: CHO cell line transfected with the human V1a receptor, agonist [Arg8]-vasopressin at EC50 concentration, read-out: IC50 hV1a; for ratio IC50 hV2/hV1a: selectivity ratio of the cellular IC50 values. It counts as cell-based. A digest of the protocol:
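CHO K1 cells stably expressing human V1a receptor with aequorin photoprotein, loaded overnight with coelenterazine. Compounds preincubated 10 min at various concentrations, then challenged with [Arg^8]-vasopressin at EC50 concentration. Calcium-driven luminescence read immediately; IC50 values derived.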

For assay [2], the target named is T1, human V2 receptor (Homo sapiens, UniProt P30518).
T1 construct: expressed in transfected cells; host or cells: CHO K1 (ATCC) expressing firefly luciferase under a CRE-responsive promoter
The assay is described as follows: Cellular in vitro assay for determining vasopressin receptor activity, V2 receptor cell line (CRE-luciferase). It counts as cell-based. To be noted: CHO cell line transfected with the human V2 receptor; agonist [Arg8]-vasopressin at EC50 concentration; read-out: IC50 hV2.

These results are taken from patent US11331314B2, “Amine substituted triazole derivatives and uses thereof” (Bayer Pharma Aktiengesellschaft, priority 2017, dated 2022).

T1 sequence (P30518 whole entry): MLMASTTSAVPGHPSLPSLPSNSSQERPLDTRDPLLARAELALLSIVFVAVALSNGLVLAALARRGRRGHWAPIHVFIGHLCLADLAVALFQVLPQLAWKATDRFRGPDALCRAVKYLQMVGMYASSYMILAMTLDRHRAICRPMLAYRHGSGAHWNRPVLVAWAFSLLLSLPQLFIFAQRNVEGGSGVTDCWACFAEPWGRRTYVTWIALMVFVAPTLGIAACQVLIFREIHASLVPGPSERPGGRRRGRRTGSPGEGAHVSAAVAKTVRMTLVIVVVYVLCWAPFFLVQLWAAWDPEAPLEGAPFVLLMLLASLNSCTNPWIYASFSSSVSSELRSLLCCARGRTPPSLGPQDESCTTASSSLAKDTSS
human V1a receptor, sequence (P37288 whole entry): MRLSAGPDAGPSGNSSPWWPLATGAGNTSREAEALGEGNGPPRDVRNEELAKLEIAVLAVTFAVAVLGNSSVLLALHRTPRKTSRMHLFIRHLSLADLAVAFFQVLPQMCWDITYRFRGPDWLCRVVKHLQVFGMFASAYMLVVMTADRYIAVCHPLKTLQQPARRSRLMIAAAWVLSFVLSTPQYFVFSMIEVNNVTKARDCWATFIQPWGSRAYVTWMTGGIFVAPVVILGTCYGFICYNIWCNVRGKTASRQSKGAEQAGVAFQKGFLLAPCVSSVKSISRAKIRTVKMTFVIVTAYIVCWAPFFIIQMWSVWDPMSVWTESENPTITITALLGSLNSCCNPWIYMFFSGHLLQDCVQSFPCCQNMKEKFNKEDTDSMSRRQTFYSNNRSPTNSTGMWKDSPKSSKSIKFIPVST

Regarding `O=c1n(Cc2nc(N3CCC(O)C3)n(-c3ccccc3Cl)n2)nc(-c2ccc(Cl)cc2)n1C[C@H](O)C(F)(F)F` (mixture of isomers) [Example 43, 5-(4-Chlorophenyl)-2-({1-(2-chlorophenyl)-5-[3-hydroxypyrrolidin-1-yl]-1H-1,2,4-triazol-3-yl}methyl)-4-[(2S)-3,3,3-trifluoro-2-hydroxypropyl]-2,4-dihydro-3H-1,2,4-triazol-3-one], the IC50 was 0.42 nM in assay [1] and 4.4 nM in assay [2]. Moreover, the “ratio IC50 hV2/hV1a” value in assay [1] turned out to be 10.5.

For the compound `NC(=O)[C@H]1CCCN1c1nc(Cn2nc(-c3ccc(Cl)cc3)n(C[C@H](O)C(F)(F)F)c2=O)nn1-c1ccccc1Cl` [Example 59, 1-[1-(2-Chlorophenyl)-3-({3-(4-chlorophenyl)-5-oxo-4-[(2S)-3,3,3-trifluoro-2-hydroxypropyl]-4,5-dihydro-1H-1,2,4-triazol-1-yl}methyl)-1H-1,2,4-triazol-5-yl]-D-prolinamide], the values for the IC50 in assay [1] and in assay [2] were 2.3 nM and 39.5 nM, respectively. Besides, the “ratio IC50 hV2/hV1a” value in assay [1] was 17.2.

With `CC(F)(F)CNc1nc(Cn2nc(-c3ccc(Cl)cc3)n(C[C@H](O)C(F)(F)F)c2=O)nn1-c1ccccc1Cl` [Example 23, 5-(4-Chlorophenyl)-2-({1-(2-chlorophenyl)-5-[(2,2-difluoropropyl)amino]-1H-1,2,4-triazol-3-yl}methyl)-4-[(2S)-3,3,3-trifluoro-2-hydroxypropyl]-2,4-dihydro-3H-1,2,4-triazol-3-one], in assay [1], the IC50 amounted to 1.25 nM and the “ratio IC50 hV2/hV1a” value was 1.0. In assay [2], the IC50 was 1.2 nM.

On to `O=c1n(Cc2nc(NCCN3CCCCS3(=O)=O)n(-c3ccccc3Cl)n2)nc(-c2ccc(Cl)cc2)n1C[C@H](O)C(F)(F)F` [Example 25, 5-(4-Chlorophenyl)-2-{[1-(2-chlorophenyl)-5-{[2-(1,1-dioxido-1,2-thiazinan-2-yl)ethyl]amino}-1H-1,2,4-triazol-3-yl]methyl}-4-[(2S)-3,3,3-trifluoro-2-hydroxypropyl]-2,4-dihydro-3H-1,2,4-triazol-3-one], for which, in assay [1], the IC50 is 0.43 nM and the “ratio IC50 hV2/hV1a” value is given as 2.0. Moreover, the IC50 in assay [2] amounted to 0.86 nM.

In the case of `CS(=O)(=O)C1CN(c2nc(Cn3nc(-c4ccc(Cl)cc4)n(C[C@H](O)C(F)(F)F)c3=O)nn2-c2ccccc2Cl)C1` [Example 2, 5-(4-Chlorophenyl)-2-({1-(2-chlorophenyl)-5-[3-(methylsulfonyl)azetidin-1-yl]-1H-1,2,4-triazol-3-yl}methyl)-4-[(2S)-3,3,3-trifluoro-2-hydroxypropyl]-2,4-dihydro-3H-1,2,4-triazol-3-one], the IC50 in assay [1] was determined as 0.43 nM; in assay [2], 0.84 nM. Further, the “ratio IC50 hV2/hV1a” value in assay [1] is given as 1.9.

As to `COCCN(C)c1nc(Cn2nc(-c3ccc(Cl)cc3)n(C[C@H](O)C(F)(F)F)c2=O)nn1-c1ccccc1Cl` [Example 85, 5-(4-Chlorophenyl)-2-({1-(2-chlorophenyl)-5-[(2-methoxyethyl)(methyl)amino]-1H-1,2,4-triazol-3-yl}methyl)-4-[(2S)-3,3,3-trifluoro-2-hydroxypropyl]-2,4-dihydro-3H-1,2,4-triazol-3-one], in assay [1], the IC50 turned out to be 0.58 nM and the “ratio IC50 hV2/hV1a” value is recorded as 16.9. Moreover, the IC50 in assay [2] stood at 9.76 nM.

`O=c1n(Cc2nc(N3CCNC(C(F)(F)F)C3)n(CCC(F)(F)F)n2)nc(-c2ccc(Cl)cc2)n1C[C@H](O)C(F)(F)F` (mixture of isomers) [Example 106, 5-(4-Chlorophenyl)-4-[(2S)-3,3,3-trifluoro-2-hydroxypropyl]-2-({5-[3-(trifluoromethyl)piperazin-1-yl]-1-(3,3,3-trifluoropropyl)-1H-1,2,4-triazol-3-yl}methyl)-2,4-dihydro-3H-1,2,4-triazol-3-one]: in assay [1], the IC50 was 26.5 nM and the “ratio IC50 hV2/hV1a” value is reported as 11.7. Further, the concentration for half-maximal inhibition (IC50) in assay [2] worked out at 310 nM.

In the case of `O=c1n(Cc2nc(N3CCC(F)(F)CC3)n(-c3ccccc3Cl)n2)nc(-c2ccc(Cl)cc2)n1C[C@H](O)C(F)(F)F` [Example 34, 5-(4-Chlorophenyl)-2-{[1-(2-chlorophenyl)-5-(4,4-difluoropiperidin-1-yl)-1H-1,2,4-triazol-3-yl]methyl}-4-[(2S)-3,3,3-trifluoro-2-hydroxypropyl]-2,4-dihydro-3H-1,2,4-triazol-3-one], the IC50 was determined as 0.46 nM in assay [1] and 8.75 nM in assay [2]. Also, the “ratio IC50 hV2/hV1a” value in assay [1] worked out at 19.0.

On to `C[C@@H](O)CNc1nc(Cn2nc(-c3ccc(Cl)cc3)n(C[C@H](O)C(F)(F)F)c2=O)nn1-c1ccccc1Cl` [Example 49, 5-(4-Chlorophenyl)-2-{[1-(2-chlorophenyl)-5-{[(2R)-2-hydroxypropyl]amino}-1H-1,2,4-triazol-3-yl]methyl}-4-[(2S)-3,3,3-trifluoro-2-hydroxypropyl]-2,4-dihydro-3H-1,2,4-triazol-3-one], for which, in assay [1], the IC50 stood at 0.63 nM and the “ratio IC50 hV2/hV1a” value worked out at 3.1. In addition, the IC50 in assay [2] was found to be 1.94 nM.

As for `NC(=O)[C@H]1CCN(c2nc(Cn3nc(-c4ccc(Cl)cc4)n(C[C@H](O)C(F)(F)F)c3=O)nn2-c2ccccc2Cl)C1` [Example 57, (3S)-1-[1-(2-Chlorophenyl)-3-({3-(4-chlorophenyl)-5-oxo-4-[(2S)-3,3,3-trifluoro-2-hydroxypropyl]-4,5-dihydro-1H-1,2,4-triazol-1-yl}methyl)-1H-1,2,4-triazol-5-yl]pyrrolidine-3-carboxamide], in assay [1], the IC50 worked out at 0.74 nM and the “ratio IC50 hV2/hV1a” value was found to be 6.6. Moreover, the IC50 in assay [2] came out at 4.9 nM.

Take `CC1(CNc2nc(Cn3nc(-c4ccc(Cl)cc4)n(C[C@H](O)C(F)(F)F)c3=O)nn2-c2ccccc2Cl)COC1` [Example 78, 5-(4-Chlorophenyl)-2-{[1-(2-chlorophenyl)-5-{[(3-methyloxetan-3-yl)methyl]amino}-1H-1,2,4-triazol-3-yl]methyl}-4-[(2S)-3,3,3-trifluoro-2-hydroxypropyl]-2,4-dihydro-3H-1,2,4-triazol-3-one]: the figures for the IC50 in assay [1] and in assay [2] were 0.79 nM and 1.63 nM, respectively. Besides, the “ratio IC50 hV2/hV1a” value in assay [1] is listed as 2.1.

`O=c1n(Cc2nc(NCC3CS(=O)(=O)C3)n(-c3ccccc3Cl)n2)nc(-c2ccc(Cl)cc2)n1C[C@H](O)C(F)(F)F` [Example 73, 5-(4-Chlorophenyl)-2-{[1-(2-chlorophenyl)-5-{[(1,1-dioxidothietan-3-yl)methyl]amino}-1H-1,2,4-triazol-3-yl]methyl}-4-[(2S)-3,3,3-trifluoro-2-hydroxypropyl]-2,4-dihydro-3H-1,2,4-triazol-3-one]: the IC50 in assay [1] was 1.13 nM; in assay [2] it was 9.5 nM. The “ratio IC50 hV2/hV1a” value in assay [1] is 8.4.

Consider `NS(=O)(=O)CCNc1nc(Cn2nc(-c3ccc(Cl)cc3)n(C[C@H](O)C(F)(F)F)c2=O)nn1-c1ccccc1Cl` [Example 44, 2-{[1-(2-Chlorophenyl)-3-({3-(4-chlorophenyl)-5-oxo-4-[(2S)-3,3,3-trifluoro-2-hydroxypropyl]-4,5-dihydro-1H-1,2,4-triazol-1-yl}methyl)-1H-1,2,4-triazol-5-yl]amino}ethanesulfonamide], for which, in assay [1], the IC50 was 0.34 nM and the “ratio IC50 hV2/hV1a” value stood at 3.5. The IC50 in assay [2] stood at 1.16 nM.

As for `O=C1NCCN1CCNc1nc(Cn2nc(-c3ccc(Cl)cc3)n(C[C@H](O)C(F)(F)F)c2=O)nn1-c1ccccc1Cl` [Example 46, 5-(4-Chlorophenyl)-2-{[1-(2-chlorophenyl)-5-{[2-(2-oxoimidazolidin-1-yl)ethyl]amino}-1H-1,2,4-triazol-3-yl]methyl}-4-[(2S)-3,3,3-trifluoro-2-hydroxypropyl]-2,4-dihydro-3H-1,2,4-triazol-3-one], the IC50 in assay [1] stood at 0.65 nM; in assay [2], 5.47 nM. Also, the “ratio IC50 hV2/hV1a” value in assay [1] is 8.5.

`O=c1n(Cc2nc(N3CCC(O)(C(F)(F)F)C3)n(-c3ccccc3Cl)n2)nc(-c2ccc(Cl)cc2)n1C[C@H](O)C(F)(F)F` (single isomer, unassigned) [Example 15]: in assay [1], the IC50 was found to be 3.4 nM and the “ratio IC50 hV2/hV1a” value amounted to 3.4. In assay [2], the IC50 was 11.4 nM.

For `O=c1n(Cc2nc(N3CCNC(C(F)(F)F)C3)n(CCC(F)(F)F)n2)nc(-c2ccc(Cl)cc2)n1C[C@H](O)C(F)(F)F` (single isomer, unassigned) [Example 108], in assay [1], the IC50 is 10.7 nM and the “ratio IC50 hV2/hV1a” value is listed as 7.9. The IC50 in assay [2] amounted to 84 nM.

`O=c1n(Cc2nc(N3CCS(=O)(=O)CC3)n(-c3ccccc3F)n2)nc(-c2ccc(Cl)cc2)n1C[C@H](O)C(F)(F)F` [Example 90, 5-(4-Chlorophenyl)-2-{[5-(1,1-dioxidothiomorpholin-4-yl)-1-(2-fluorophenyl)-1H-1,2,4-triazol-3-yl]methyl}-4-[(2S)-3,3,3-trifluoro-2-hydroxypropyl]-2,4-dihydro-3H-1,2,4-triazol-3-one]: in assay [1], the IC50 came out at 8.8 nM and the “ratio IC50 hV2/hV1a” value is recorded as 28.1. Also, in assay [2], the IC50 stood at 248 nM.

As to `O=c1n(Cc2nc(N3CC4(C3)CS(=O)(=O)C4)n(-c3ccccc3Cl)n2)nc(-c2ccc(Cl)cc2)n1C[C@H](O)C(F)(F)F` [Example 47, 5-(4-Chlorophenyl)-2-{[1-(2-chlorophenyl)-5-(2,2-dioxido-2-thia-6-azaspiro[3.3]hept-6-yl)-1H-1,2,4-triazol-3-yl]methyl}-4-[(2S)-3,3,3-trifluoro-2-hydroxypropyl]-2,4-dihydro-3H-1,2,4-triazol-3-one], the figures for the IC50 in assay [1] and in assay [2] were 0.96 nM and 5.63 nM, respectively. In assay [1], the “ratio IC50 hV2/hV1a” value was determined as 5.8.
